Tested on: human breast cancer cell line (MCF-7)
Assay: Human breast cancer (MCF-7) cell growth inhibition test
Format: cell-based
Conditions: MCF7, 72 h, MCF-7, culture for 3 days, sulforhodamine B absorbance
Procedure: Human Breast Cancer (MCF-7) Cell Growth Inhibition Test
The measurement of a human breast cancer cell growth inhibitory effect was carried out by modifying the method of Simak et al. (Cancer Research, 69, 6208 (2009)).
A human breast cancer cell line (MCF-7) manufactured by DS Pharma Biomedical Co., Ltd., Cat. No. EC86012803, was cultured in MEM (manufactured by GIBCO/Thermo Fisher Scientific, Inc., REF. 11095-080) medium containing 10% FBS (manufactured by GIBCO/Thermo Fisher Scientific, Inc., REF. 10082-147), nonessential amino acids (manufactured by GIBCO/Thermo Fisher Scientific, Inc., REF. 11140-050), and 1% penicillin/streptomycin/amphotericin B (manufactured by GIBCO/Thermo Fisher Scientific, Inc., REF. 15240-096) and inoculated at 3.0×10^3 cells/well to a 96-well plate (manufactured by Corning Inc., REF. 353072). After overnight culture in a carbon dioxide incubator, it was replaced with a fresh MEM medium containing 10% FBS, nonessential amino acids, and 1% penicillin/streptomycin/amphotericin B on the next day, and a test compound dissolved in DMSO (manufactured by Wako Pure Chemical Industries, Ltd., Code No. 043-07216) (final DMSO concentration: 0.1%) was added and left standing in a carbon dioxide incubator. After culture for 3 days, the absorbance of each well was measured by using In Vitro Toxicology Assay Kit Sulforhodamine B based (manufactured by Sigma-Aldrich Co. LLC., Pcode 1001910706).
The rate of inhibition of cell growth at each concentration was calculated from the test compound concentration and the absorbance of sulforhodamine B, and the concentration of the test compound necessary for inhibiting 50% of cell growth (IC50 value) was calculated by using EXSUS (version 8.0.0 or version 8.0.1, manufactured by CAC Exicare Corp.).

SMILES | IC50 [µM]
CC1(C)c2[nH]nc(NC(=O)C3([Si](C)(C)C)CCC3)c2CN1C(=O)N[C@H](CO)c1ccccc1 [IV-114, (S)—N-(2-Hydroxy-1-phenylethyl)-6,6-dimethyl-3-[1-(trimethylsilyl)cyclobutanecarboxamido]-4,6-dihydropyrrolo[3,4-c]pyrazole-5(1H)-carboxamide] | ≤ 0.5
CC[Si](C)(C)C1(C(=O)Nc2n[nH]c3c2CN(C(=O)N[C@H](CO)c2ccccc2)C3(C)C)CCC1 [IV-117, (S)-3-[1-(Ethyldimethylsilyl)cyclobutanecarboxamido]-N-(2-hydroxy-1-phenylethyl)-6,6-dimethyl-4,6-dihydropyrrolo[3,4-c]pyrazole-5(1H)-carboxamide] | ≤ 0.5
COC[C@@H](NC(=O)N1Cc2c(NC(=O)C3([Si](C)(C)C)CCC3)n[nH]c2C1(C)C)c1ccccc1 [IV-123, (S)—N-(2-Methoxy-1-phenylethyl)-6,6-dimethyl-3-[1-(trimethylsilyl)cyclobutanecarboxamido]-4,6-dihydropyrrolo[3,4-c]pyrazole-5(1H)-carboxamide] | ≤ 0.5
CC(C)(O)[C@@H](NC(=O)N1Cc2c(NC(=O)C3([Si](C)(C)C)CCC3)n[nH]c2C1(C)C)c1ccccc1 [IV-171, (S)—N-(2-Hydroxy-2-methyl-1-phenylpropyl)-6,6-dimethyl-3-[1-(trimethylsilyl)cyclobutanecarboxamido]-4,6-dihydropyrrolo[3,4-c]pyrazole-5(1H)-carboxamide] | ≤ 0.5
CC1(C)c2[nH]nc(NC(=O)C3([Si](C)(C)C)CCC3)c2CN1C(=O)N[C@H](CCO)c1ccccc1 [IV-227, (R)—N-(3-Hydroxy-1-phenylpropyl)-6,6-dimethyl-3-[1-(trimethylsilyl)cyclobutanecarboxamido]-4,6-dihydropyrrolo[3,4-c]pyrazole-5(1H)-carboxamide] | ≤ 0.5
CC1(C)c2[nH]nc(NC(=O)C3([Si](C)(C)C)CCC3)c2CN1C(=O)N[C@H](CCCCO)c1ccccc1 [IV-291, (R)—N-(5-Hydroxy-1-phenylpentyl)-6,6-dimethyl-3-[1-(trimethylsilyl)cyclobutanecarboxamido]-4,6-dihydropyrrolo[3,4-c]pyrazole-5(1H)-carboxamide] | ≤ 0.5
CC1(C)c2[nH]nc(NC(=O)C3([Si](C)(C)C)CCC3)c2CN1C(=O)NCCO [IV-438, N-(2-Hydroxyethyl)-6,6-dimethyl-3-[1-(trimethylsilyl)cyclobutanecarboxamido]-4,6-dihydropyrrolo[3,4-c]pyrazole-5(1H)-carboxamide] | ≤ 0.5
C[C@@H](CO)NC(=O)N1Cc2c(NC(=O)C3([Si](C)(C)C)CCC3)n[nH]c2C1(C)C [IV-455, (S)—N-(1-Hydroxypropan-2-yl)-6,6-dimethyl-3-[1-(trimethylsilyl)cyclobutanecarboxamido]-4,6-dihydropyrrolo[3,4-c]pyrazole-5(1H)-carboxamide] | ≤ 0.5
CC(C)[C@@H](CO)NC(=O)N1Cc2c(NC(=O)C3([Si](C)(C)C)CCC3)n[nH]c2C1(C)C [IV-475, (S)—N-(1-Hydroxy-3-methylbutan-2-yl)-6,6-dimethyl-3-[1-(trimethylsilyl)cyclobutanecarboxamido]-4,6-dihydropyrrolo[3,4-c]pyrazole-5(1H)-carboxamide] | ≤ 0.5
CC1(C)c2[nH]nc(NC(=O)C3([Si](C)(C)C)CCC3)c2CN1C(=O)N[C@H](CO)C1CCCCC1 [IV-495, (S)—N-(1-Cyclohexyl-2-hydroxyethyl)-6,6-dimethyl-3-[1-(trimethylsilyl)cyclobutanecarboxamido]-4,6-dihydropyrrolo[3,4-c]pyrazole-5(1H)-carboxamide] | ≤ 0.5

— US10131679B2, “Substituted dihydropyrrolopyrazole compound” (UBE INDUSTRIES, LTD., priority 2014, dated 2018)
